Source: patent US20140121216A1, “INDOLEAMINE DERIVATIVES FOR THE TREATMENT OF CENTRAL NERVOUS SYSTEM DISEASES” (Adamed Sp. z o.o., priority 2011, published 2014)

Legend:
[1] = target: T1, D4.4 receptor, human recombinant (CHO cells) (Homo sapiens, UniProt P21917); assay: Binding assay, dopaminergic D4.4 receptor ([3H]methylspiperone); details: compound 1×10^−6 M
T1 construct: expressed in transfected cells; host or cells: CHO cells
T1 sequence (P21917 1-419): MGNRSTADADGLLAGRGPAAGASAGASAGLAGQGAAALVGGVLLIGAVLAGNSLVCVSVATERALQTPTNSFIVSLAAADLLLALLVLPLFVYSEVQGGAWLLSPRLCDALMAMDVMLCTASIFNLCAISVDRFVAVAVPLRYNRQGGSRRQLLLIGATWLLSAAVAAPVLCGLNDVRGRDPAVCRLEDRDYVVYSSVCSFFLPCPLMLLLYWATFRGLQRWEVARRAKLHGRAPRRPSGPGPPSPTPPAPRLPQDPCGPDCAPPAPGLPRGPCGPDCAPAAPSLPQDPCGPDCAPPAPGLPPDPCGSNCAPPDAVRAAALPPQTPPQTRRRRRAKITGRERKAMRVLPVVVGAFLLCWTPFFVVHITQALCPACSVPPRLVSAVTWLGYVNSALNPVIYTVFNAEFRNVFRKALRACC
Experimental: Moreover, ability of the compounds of the invention to block potassium channel hERG was tested.
The specific ligand binding to the receptors is defined as the difference between the total binding and the non-specific binding determined in the presence of an excess of unlabelled ligand.
The inhibition constants (Ki) were calculated using the Cheng Prusoff equation (Ki=IC50/(1+(L/KD)), where L=concentration of radioligand in the assay, and KD=affinity of the radioligand for the receptor). A Scatchard plot is used to determine the Kd. The IC50 values (concentration causing a half-maximal inhibition of control specific binding) and Hill coefficients (nH) were determined by non-linear regression analysis of the competition curves generated with mean replicate values using Hill equation curve fitting (Y=D+[(A−D)/(1+(C/C50)^nH)], where Y=specific binding, D=minimum specific binding, A=maximum specific binding, C=compound concentration, C50=IC50, and nH=slope factor). This analysis was performed using a software developed at Cerep (Hill software) and validated by comparison with data generated by the commercial software SigmaPlot® 4.0 for Windows® (©1997 by SPSS Inc.).
Experimental conditions for tests are given in Table 1, the results of tests for so representative compounds are given in Table 2a and 2b (receptors D2 and D3) and in Table 3 (receptors D4).

[2] = target: T2, D2S (h), human recombinant (HEK-293 cells) (Homo sapiens, UniProt P14416); assay: Cellular functional assay D2S (h) agonism; format: cell-based; details: HEK293; compound 1×10^−6 M; control 3 μM dopamine; read-out: D2-ag [%]
T2 construct: expressed in transfected cells; host or cells: HEK-293 cells
T2 sequence (P14416 1-414 isoform P14416-2): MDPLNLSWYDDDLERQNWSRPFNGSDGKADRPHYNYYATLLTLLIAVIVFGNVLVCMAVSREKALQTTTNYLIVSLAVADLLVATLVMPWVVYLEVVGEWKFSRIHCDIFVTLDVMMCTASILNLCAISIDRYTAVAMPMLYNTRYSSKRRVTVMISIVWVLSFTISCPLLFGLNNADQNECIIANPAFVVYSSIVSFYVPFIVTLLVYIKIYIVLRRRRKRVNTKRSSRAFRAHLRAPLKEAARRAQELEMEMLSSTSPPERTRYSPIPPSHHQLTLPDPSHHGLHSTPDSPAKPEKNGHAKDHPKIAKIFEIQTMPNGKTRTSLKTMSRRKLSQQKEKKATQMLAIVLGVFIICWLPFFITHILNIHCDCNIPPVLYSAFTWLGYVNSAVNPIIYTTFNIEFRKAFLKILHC
Experimental: (§1) The results are expressed as a percent of control specific agonist response ((measured specific response/control specific agonist response)×100) obtained in the presence of tested compound.
(§2) The EC50 values (concentration producing a half-maximal specific response) and IC50 values (concentration causing a half-maximal inhibition of the control specific agonist response) were determined by non-linear regression analysis of the concentration-response curves generated with mean replicate values using Hill equation curve fitting (Y=D+[(A−D)/(1+(C/C50)nH)], where Y=specific response, D=minimum specific response, A=maximum specific response, C=compound concentration, and C50=EC50 or IC50, and nH=slope factor).
(§3) For the antagonists, the apparent dissociation constants (Kb) were calculated using the modified Cheng Prusoff equation (Kb=IC50/(1+(A/EC50A)), where A=concentration of reference agonist in the assay, and EC50A=EC50 value of the reference agonist).

[3] = target: T2, D2S (h), human recombinant (HEK-293 cells); assay: Cellular functional assay D2S (h) antagonism; format: cell-based; details: HEK293; compound 1×10^−6 M; stimulus dopamine 30 nM; read-out: D2-antag [%]
Experimental: as §1, §2, §3

[4] = target: T3, D3 (h), human recombinant (CHO cells) (Homo sapiens, UniProt P35462); assay: Cellular functional assay D3 (h) agonism; format: cell-based; details: compound 1×10^−6 M; control 0.3 μM dopamine
T3 construct: expressed in transfected cells; host or cells: CHO cells
T3 sequence (P35462 whole entry): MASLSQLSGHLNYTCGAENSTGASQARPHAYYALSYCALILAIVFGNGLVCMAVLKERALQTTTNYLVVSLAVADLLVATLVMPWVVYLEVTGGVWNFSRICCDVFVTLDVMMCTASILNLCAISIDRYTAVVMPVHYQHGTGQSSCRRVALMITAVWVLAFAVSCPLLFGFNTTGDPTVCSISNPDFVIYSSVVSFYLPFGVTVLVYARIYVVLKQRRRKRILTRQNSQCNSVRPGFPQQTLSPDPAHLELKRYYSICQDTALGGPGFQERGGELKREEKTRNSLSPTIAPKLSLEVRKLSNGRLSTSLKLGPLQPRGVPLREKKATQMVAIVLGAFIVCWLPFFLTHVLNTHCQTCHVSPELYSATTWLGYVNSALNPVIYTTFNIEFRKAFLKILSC
Experimental: as §1, §2, §3

[5] = target: T4, 5-HT1A (h), human recombinant (CHO cells) (Homo sapiens, UniProt P08908); assay: Cellular functional assay 5-HT1A (h) agonism; format: cell-based; details: compound 1×10^−6 M; control 100 nM 8-OHDPAT
T4 construct: expressed in transfected cells; host or cells: CHO cells
T4 sequence (P08908 1-422): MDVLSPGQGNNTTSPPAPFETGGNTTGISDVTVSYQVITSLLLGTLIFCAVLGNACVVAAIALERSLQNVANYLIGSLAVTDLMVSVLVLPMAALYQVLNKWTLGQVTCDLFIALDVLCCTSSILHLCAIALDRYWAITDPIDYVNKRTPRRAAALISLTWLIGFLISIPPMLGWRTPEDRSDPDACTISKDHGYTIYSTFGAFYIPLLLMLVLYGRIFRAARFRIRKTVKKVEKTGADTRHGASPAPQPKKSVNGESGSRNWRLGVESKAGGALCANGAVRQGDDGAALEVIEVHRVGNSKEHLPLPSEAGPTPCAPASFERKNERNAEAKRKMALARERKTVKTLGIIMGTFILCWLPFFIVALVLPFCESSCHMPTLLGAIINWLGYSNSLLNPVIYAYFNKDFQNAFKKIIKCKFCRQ
Experimental: as §1, §2, §3

[6] = target: T4, 5-HT1A (h), human recombinant (CHO cells); assay: Cellular functional assay 5-HT1A (h) antagonism; format: cell-based; details: compound 1×10^−6 M; stimulus 8-OH-DPAT 10 nM
Experimental: as §1, §2, §3

[7] = target: T5, 5-HT2A (h), human recombinant (HEK-293 cells) (Homo sapiens, UniProt P28223); assay: Cellular functional assay 5-HT2A (h) antagonism; format: cell-based; details: compound 1×10^−6 M; stimulus serotonin 100 nM
T5 construct: expressed in transfected cells; host or cells: HEK-293 cells
T5 sequence (P28223 whole entry): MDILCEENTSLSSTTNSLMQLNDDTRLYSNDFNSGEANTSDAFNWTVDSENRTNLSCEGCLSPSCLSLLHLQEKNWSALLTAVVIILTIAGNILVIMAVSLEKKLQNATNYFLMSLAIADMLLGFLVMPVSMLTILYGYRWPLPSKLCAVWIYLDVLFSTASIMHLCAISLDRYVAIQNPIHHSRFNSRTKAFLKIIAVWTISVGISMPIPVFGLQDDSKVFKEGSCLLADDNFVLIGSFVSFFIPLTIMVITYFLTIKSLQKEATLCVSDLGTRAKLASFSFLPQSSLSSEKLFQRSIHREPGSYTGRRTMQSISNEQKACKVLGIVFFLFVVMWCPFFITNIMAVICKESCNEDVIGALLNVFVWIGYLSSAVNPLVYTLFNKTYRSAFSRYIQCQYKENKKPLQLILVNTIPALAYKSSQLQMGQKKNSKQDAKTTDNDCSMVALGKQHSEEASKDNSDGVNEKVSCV
Experimental: as §1, §2, §3

[8] = target: T6, 5-HT6 (h), human recombinant (CHO cells) (Homo sapiens, UniProt P50406); assay: Cellular functional assay 5-HT6 (h) agonism; format: cell-based; details: compound 1×10^−6 M, control 10 μM serotonin, read-out: 5-HT6-ag [%]
T6 construct: expressed in transfected cells; host or cells: CHO cells
T6 sequence (P50406 whole entry): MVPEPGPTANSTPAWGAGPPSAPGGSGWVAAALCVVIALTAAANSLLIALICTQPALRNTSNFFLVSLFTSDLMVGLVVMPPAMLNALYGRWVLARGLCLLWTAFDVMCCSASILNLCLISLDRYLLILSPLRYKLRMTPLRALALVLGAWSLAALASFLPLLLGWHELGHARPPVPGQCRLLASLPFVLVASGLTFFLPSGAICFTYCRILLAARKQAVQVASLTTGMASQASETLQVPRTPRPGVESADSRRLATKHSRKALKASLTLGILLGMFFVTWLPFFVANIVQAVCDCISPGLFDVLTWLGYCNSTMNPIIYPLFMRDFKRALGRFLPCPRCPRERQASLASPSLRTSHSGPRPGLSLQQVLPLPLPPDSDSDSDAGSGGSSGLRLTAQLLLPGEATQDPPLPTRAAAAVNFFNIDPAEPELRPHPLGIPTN
Experimental: as §1, §2, §3

SMILES | D4.4 [%] binding assay result [1] [%] | activation at 1 µM [2] [%] | inhibition at 1 µM [3] [%] | D3-ag [%] [4] [%] | 5-HT1A-ag [%] [5] [%] | 5-HT1A-antag [%] [6] [%] | 5-HT2A-antag [%] [7] [%] | activation at 1 µM [8] [%]
O=C1CCc2ccc(OCCCN3CCN(c4cccc5c4ccn5Cc4ccccc4)CC3)cc2N1 [Compound 4, 7-[3-[4-(1-Benzylindol-4-yl)piperazin-1-yl]propoxy]-3,4-dihydro-1H-quinolin-2-one] | 63 | 45 | 89 | 22 | 63 | 17 | 17 | 0
O=C1CCc2ccc(OCCCCN3CCN(c4cccc5c4ccn5Cc4ccccc4)CC3)cc2N1 [Compound 5, 7-(4-(4-(1-Benzyl-1H-indol-4-yl)piperazin-1-yl)butoxy)-3,4-dihydroquinolin-2(1H)-one] | 40 | 47 | 99 | 22 | 66 | 31 | 66 | -1
O=C1CCc2ccc(OCCCN3CCN(c4cccc5c4ccn5S(=O)(=O)c4ccccc4)CC3)cc2N1 [Compound 23, 7-[3-[4-[1-(Benzensulphonyl)indol-4-yl]piperazin-1-yl]propoxy]-3,4-dihydro-1H-quinolin-2-one] | 18 | 40 | 55 | 65 | 69 | 20 |  | 2
O=C1CCc2ccc(OCCCCN3CCN(c4cccc5c4ccn5S(=O)(=O)c4ccccc4)CC3)cc2N1 [Compound 24, 7-(4-(4-(1-(Phenylsulphonyl)-1H-indol-4-yl)piperazin-1-yl)butoxy)-3,4-dihydroquinolin-2(1H)-one] | 42 | 47 | 93 | 13 | 69.7 | 0 | 34.2 | 0
O=C1CCc2ccc(OCCCCN3CCN(c4cccc5c4ccn5Cc4cccc(F)c4)CC3)cc2N1 [Compound 63, 7-[4-[4-[1-[(3-Fluorophenyl)methyl]indol-4-yl]piperazin-1-yl]butoxy]-3,4-dihydro-1H-quinolin-2-one] | 46 | 47 | 108 | 20 | 26 | 73 | 63 | -1
O=C1CCc2ccc(OCCCCN3CCN(c4cccc5c4ccn5Cc4cccc(Cl)c4)CC3)cc2N1 [Compound 67, 7-[4-[4-[1-[(3-Chlorophenyl)methyl]indol-4-yl]piperazin-1-yl]butoxy]-3,4-dihydro-1H-quinolin-2-one] | 44 | 46 | 103 | 11 | 23 | 56 | 34 | 0
NC(=O)c1ccccc1OCCCN1CCN(c2cccc3c2ccn3S(=O)(=O)c2ccccc2)CC1 [Compound 72, 2-[3-[4-[1-(Benzenesulfonyl)indol-4-yl]piperazin-1-yl]propoxy]-benzamide] | 95 | 34 | 95 | 34 | 16 | 61 | 45 | -2
